Assay results published in patent US20060057093A1, “Preparation for topical use with the function of combating hair loss” (priority 2003, published 2006).

How the values were obtained:
[1] = test system: human fibroblast cultures; assay: cell-stimulating action on human fibroblast cultures; type: cell-based; details: active ingredient present in the culture medium
Excerpt: The cell-stimulating action of the complex of amino acids with silanol has been tested on human fibroblast cultures. The increase in cell growth was 46% when that active ingredient was present in the culture medium.

[2] = test system: transglutaminases in keratinocytes; details: cited from earlier work

monomethylsilanol-hydroxyproline aspartate [complex of amino acids with silanol]
increase in cell growth [1]: 46%

CCCC(=O)[O-].[Na+] [sodium butyrate]
formation of the corneified enclosure of the corneocytes ([2]; keratinocytes in the final stage of differentiation): capable of stimulating | synthesis of transglutaminases in keratinocytes ([2]; keratinocytes): capable of stimulating the synthesis of transglutaminases
